# Positions of bridges follow the written chain, without caps; N, C: chain ends.
# T1: recombinant human BTLA-Fc (human, UniProt Q7Z6A9 31-157)
# T1 construct: B and T lymphocyte attenuator (BTLA), human, fused to Fc; also called rhBTLA-Fc
# T1 sequence (looked up): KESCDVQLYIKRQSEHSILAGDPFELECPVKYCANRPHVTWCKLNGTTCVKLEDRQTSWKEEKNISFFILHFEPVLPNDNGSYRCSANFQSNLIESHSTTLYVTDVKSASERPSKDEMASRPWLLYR
# B1: HVEM(31–39) (peptide)
# peptide: Ac-ELTGTVCEP-NH2
# notes: herpes virus entry mediator (HVEM), human, residues 31-39; also called HVEM (31–39) fragment; source: synthetic peptide (SPPS, RP-HPLC purified)
# B2: HVEM(23–39) peptide (peptide)
# peptide: YRVKEACGELTGTVCEP
# modifications: not fully specified; N-terminal acetyl (Ac-); C-terminal amide (-NH2)
# notes: herpes virus entry mediator (HVEM), human, residues 23-39 of the CRD1 domain; Linear, with two free sulfhydryl groups; also called HVEM(23–39) fragment; wild-type peptide HVEM(23–39); source: synthetic peptide (SPPS, RP-HPLC purified)
# How the values were obtained:
# [1] = system: BTLA/HVEM interaction (BTLA-Fc coated, HVEM-Fc); assay: Competitive BTLA/HVEM ELISA; assay type: binding, human; details: peptide or amino acid at 5, 1 and 0.1 mg/mL, 2 h at 37°C; relative to PBS (0%) and anti-BTLA 7.1 mAb (100%); at least two experiments in triplicate
# Excerpt: (§1) The recombinant human BTLA protein used in affinity tests was purchased form Novoprotein (Company product code: C563). For ELISA, recombinant human BTLA-Fc, HVEM-Fc as well as anti-human BTLA (#7.1) blocking monoclonal antibody (mAb) and anti-human HVEM (#11.8) non-blocking mAb were described previously. Anti-HVEM mAb was biotinylated using the Biotin Labeling Kit-NH2 (Abnova, #KA0003), according manufacturer’s instruction.
# 96-well round bottom plates (medium binding; Greiner Bio-One) were coated with 400 ng/well of recombinant BTLA-Fc protein in PBS (50 μL/well) and incubated overnight at 4°C. Wells were washed twice with PBS-T (phosphate buffer saline with 0.1% Tween-20, pH 7.4) and blocked with 1% milk in PBS-T for 1 hour at 37°C. […] Maximum binding of HVEM to BTLA was controlled by adding 1% milk/PBS-T to negative control wells, whereas maximum inhibition was monitored by adding anti-BTLA 7.1 mAb (0.1 μg/well). Next, the plate was washed and incubated with recombinant HVEM-Fc protein at 400 ng/well in 1% milk/PBS-T for 1 hour at 37°C. Biotinylated anti-HVEM 11.8 antibody was then added (biotinylated preparation diluted at 1/10 000 in 1% milk/PBS-T) and incubated for 1 hour at 37°C. Streptavidin horseradish peroxidase (Dako) was finally added at a 1/8000 dilution in 1% BSA/PBS-T for 30 min at 37°C and detected with TMB (Biorad). The substrate reaction was blocked with 0.2 M H2SO4 and the absorbance was read at 450 nm and 630 nm. […] Statistical analysis of the results was performed using the one-way analysis of variance (one-way ANOVA).
# [2] = system: 293T cells expressing BTLA, binding of rhHVEM-Fc; assay: BTLA/HVEM interaction cell line assay (flow cytometry); assay type: cell-based; details: 293T cells expressing human BTLA pre-incubated with 5 mg/mL for 1 h at 4°C, then rhHVEM-Fc 8 μg/ml and AF647 anti-human IgG; at least two experiments in triplicate
# Procedure: 293T cells expressing BTLA (generous gift from Dr. C. Krummenacher, University of Pennsylvania, USA) were maintained in culture with RPMI 10% FCS supplemented with 0.2 mg/ml hygromycin B. 2x10^5 293T cells expressing BTLA were incubated with […] 8μg/ml in PBS 0.5% BSA for 30min at 4°C. Cells were then washed and incubated with goat anti-human Fc conjugated with AF647 for 20min at 4°C (Jackson ImmunoResearch, #109-606-170). Inhibition of HVEM-BTLA binding by different peptides was assessed by pre-incubating the cells with the different peptides at 5 mg/ml for 1h at 4°C. BTLA expression was controlled by anti-BTLA APC-conjugated antibody (Biolegend, #344510). Maximum inhibition of binding was determined by adding anti-BTLA7.1 antibody for 1h at 4°C at 2μg/ml before adding […]. Sample acquisition was performed on the Gallios Flow-Cytometer (Beckman Coulter) and data were analyzed using the FlowJo Software (TreeStar).  Fig 7 Blocking capacity of HVEM(23-39) fragment and free amino acids in a cellular assay. 293T cells expressing human BTLA were incubated with peptides or free amino acids (5mg/mL) prior labeling with […] AF647-conjugated anti-human IgG antibody (at least two experiments in triplicate).
# [3] = system: recombinant human BTLA protein; assay: Microcolumn affinity test (BTLA-Sepharose, MALDI-MS of fractions); assay type: binding; details: for Interaction with BTLA immobilised in microcolumn (in words): BTLA-Sepharose microcolumn, 2 h at 25°C, pH 7.4, MS of elution fraction; for Elution [M+H]+1 (peptide signal in elution fraction = complex with BTLA formed; - = no signal): BTLA immobilised on NHS-Sepharose microcolumn, peptide incubated 2 h at 25°C in NH4HCO3 pH 7.4, eluted with 0.1% TFA, MALDI TOF/TOF
# Procedure: as §1
# The immobilization of BTLA protein in a microcolumn was performed using the NHS-activated acid-coupled Sepharose 4B (Sigma Aldrich). BTLA protein was dissolved in 100 μl of coupling buffer (0.2 M NaHCO3, 0.5 M NaCl, pH 8.3) and was added to 0.06 g NHS-activated Sepharose in 100 μl of coupling buffer. The coupling reaction was performed for 1 hour in 25°C and the mixture was transferred into the microcolumn (MoBiTec, Goettingen, Germany). The microcolumn with immobilized protein was washed alternately with 10 ml of solution blocking buffer (0.1 M amino ethanol, 0.5 M NaCl, pH 8.3) and washing buffer (0.1 M CH3COONa, 0.5 M NaCl, pH 4). This step was repeated 4 times. The microcolumn was stored in PBS (pH 7.4).
# Peptide affinity assay using NHS-activated Sepharose microcolumn was already described elsewhere. The peptides were added onto BTLA-Sepharose column equilibrated in ammonium hydrogen carbonate (NH4HCO3, pH 7.4) and incubated for 2 h at 25°C with gentle shaking. After this time the unbound peptide was removed and the column was washed with […] NH4HCO3 and 20 ml of H2O. Dissociation of the protein—peptide complex was performed using 0.1% TFA in H2O (2 x 0.5 ml) by 15 minutes. All fractions were analyzed using mass spectrometry (MALDI TOF/TOF™ 5800, AB SCIEX).
# Fig 2 Microcolumn affinity test. Microcolumn affinity test results for binding of HVEM(23–39) fragment to BTLA: (A) supernatant, (B) last wash and (C) elution fractions. The MS measurements were done with the use of MALDI TOF/TOF 5800 (ABSciex, Germany). As a matrix α-cyano-4-hydroxycinnamic acid (CHCA, 10 mg/ml, Sigma-Aldrich) was used. The measurements were done in reflector positive mass mode with previous mass calibration with commercial standard peptide mixture (The Peptide Mass Standards Kit for Calibration of AB SCIEX MALDI-TOF™ Instruments).
# [4] = Ellman's assay of free thiols; assay type: physicochemical; details: for Presence of free thiol groups: DTNB, 0.1 M sodium phosphate pH 7.4, 1 mM EDTA, absorbance at 412 nm
# Procedure: The presence of free thiols was investigated using Ellman’s assay. DTNB (Sigma Aldrich) was first dissolved in reaction buffer (0.1 M sodium phosphate, pH 7.4, containing 1 mM EDTA) at a concentration of 4 mg/ml. Then peptides and recombinant BTLA-Fc, alone or mixed together (ratio 1:1) were added in DTNB reaction buffer. After 15 minutes of incubation, the SH content of protein samples was then assessed by the measurement of absorbance at 412 nm. For each sample, the absorbance value from the blank was subtracted.
# [5] = molecular target: T1, recombinant human BTLA-Fc; assay: ELISA; competitive: BTLA-Fc coated at 400 ng/well; peptides in 1% milk/PBS-T 2 h at 37°C; washed; HVEM-Fc 400 ng/well 1 h at 37°C; detected with biotinylated anti-HVEM 11.8 and streptavidin-HRP; percent inhibition relative to anti-BTLA 7.1 mAb (100%) and buffer (0%); details: both partners purified
molecule,measurement,setting,value
"N[C@@H](CS)C(=O)O [cysteine, reference compound]",Inhibition of BTLA/HVEM ligation in ELISA (in words),[1],prevented partially the binding of HVEM
same,"Blocking of BTLA/HVEM binding in cellular assay (GMFI, in words)",[2],blocked BTLA/HVEM complex formation
"N[C@@H](CSSC[C@H](N)C(=O)O)C(=O)O [cystine, reference compound]",Inhibition of BTLA/HVEM ligation in ELISA (in words),[1],the inhibitory properties were not observed
"CSCC[C@H](N)C(=O)O [methionine, reference compound]",Inhibition of BTLA/HVEM ligation in ELISA (in words),[1],the inhibitory properties were not observed
"Ac-ELCAGPVTRKVECTYGE-NH2 [Scrambled peptide, scrambled control of HVEM(23–39), Ac-…-NH2, reference compound]",Interaction with BTLA immobilised in microcolumn (in words),[3],did not interact with BTLA immobilized in microcolumn
same,Inhibition of BTLA/HVEM ligation in ELISA (in words),[1],has no effect
same,Presence of free thiol groups,[4],contains free thiol groups
"Ac-ELTGTVCEP-NH2 [HVEM(31–39), 9 amino acid-long HVEM fragment 31–39]",Elution [M+H]+1 (peptide signal in elution fraction = complex with BTLA formed; - = no signal),[3],989.3
same,Inhibition of BTLA/HVEM ligation in ELISA (in words),[1],showed a lower percentage of inhibition than the HVEM(23–39)
"Ac-ELTGTVS^37EP-NH2 [HVEM(31–39) C37S, HVEM(31–39) analog with Cys37 replaced by serine]",Inhibition of BTLA/HVEM ligation in ELISA (in words),[1],no blocking capacity
"Ac-YRVKEACGELTGTVCEP-NH2 (disulfide 7-15 (inferred); SMILES CC(=O)N[C@@H](Cc1ccc(O)cc1)C(=O)N[C@@H](CCCNC(=N)N)C(=O)N[C@H](C(=O)N[C@@H](CCCCN)C(=O)N[C@@H](CCC(=O)O)C(=O)N[C@@H](C)C(=O)N[C@H]1CSSC[C@@H](C(=O)N[C@@H](CCC(=O)O)C(=O)N2CCC[C@H]2C(N)=O)NC(=O)[C@H](C(C)C)NC(=O)[C@H]([C@@H](C)O)NC(=O)CNC(=O)[C@H]([C@@H](C)O)NC(=O)[C@H](CC(C)C)NC(=O)[C@H](CCC(=O)O)NC(=O)CNC1=O)C(C)C) [HVEM(23–39) (C29-C37), cyclic HVEM(23–39) with disulfide bridge, oxidized cysteines]",Elution [M+H]+1 (peptide signal in elution fraction = complex with BTLA formed; - = no signal),[3],1893.9
same,Interaction with BTLA immobilised in microcolumn (in words),[3],interacted with BTLA in affinity test
same,Inhibition of BTLA/HVEM ligation in ELISA (in words),[1],no blocking of BTLA/HVEM interaction was observed
"Ac-YRVKEACGELTGTVCEP-NH2 [HVEM(23–39), HVEM fragment 23–39, Ac-…-NH2, free sulfhydryl groups]",Interaction with BTLA immobilised in microcolumn (in words),[3],complex between BTLA and HVEM(23–39) was formed
same,Inhibition of BTLA/HVEM ligation in ELISA (in words),[1],"can partially prevent the ligation of HVEM to BTLA, in a dose dependent manner"
same,"Blocking of BTLA/HVEM binding in cellular assay (GMFI, in words)",[2],almost no blocking of the BTLA/HVEM binding was observed
same,Presence of free thiol groups,[4],observed free thiol groups
same,"Concentration of free thiol groups after 2 hours of incubation, peptide alone","[4]; Ellman's assay, pH 7.4, peptide alone, 2 hours, suggests a fraction of the peptide is oxidized",lower
same,"Concentration of free thiol groups over time, peptide incubated with BTLA-Fc","[4]; Ellman's assay, pH 7.4, peptide mixed with recombinant BTLA-Fc (ratio 1:1)","decrease in the concentration of free thiol groups over time, which was more pronounced than in the condition where the peptide was alone"
"Ac-YRVKEAS^29GELTGTVCEP-NH2 [HVEM(23–39) C29S, HVEM(23–39) analog with Cys29 replaced by serine]",Elution [M+H]+1 (peptide signal in elution fraction = complex with BTLA formed; - = no signal),[3],1879.7
"Ac-YRVKEAY^29GELTGTVCEP-NH2 [HVEM(23–39) C29Y, HVEM(23–39) analog with Cys29 replaced by tyrosine]",Elution [M+H]+1 (peptide signal in elution fraction = complex with BTLA formed; - = no signal),[3],1955.7
"C29A: single alanine-substituted HVEM(23–39) variant, cysteine 29 replaced by alanine (Ac-YRVKEAAGELTGTVCEP-NH2)",Inhibition of BTLA/HVEM ligation in ELISA (in words),[1],significant reduction of the inhibition
"C37A: single alanine-substituted HVEM(23–39) variant, cysteine 37 replaced by alanine (Ac-YRVKEACGELTGTVAEP-NH2)",Inhibition of BTLA/HVEM ligation in ELISA (in words),[1],significant reduction of the inhibition
B1,binding result,[5],binds
B2,binding result,[5],binds
